How the values were obtained:
Format in all cases: in vivo
[1] = tested on: green peach aphid (Myzus persicae); test: Green peach aphid (Myzus persicae) systemic test, artificial diet under membrane; details: 72 h, read-out: mortality in comparison with untreated controls
Protocol: (§1) If not otherwise specified, the test solutions are prepared as follows: The active compound is dissolved at the desired concentration in a mixture of 1:1 (vol:vol) distilled water:acteone. The test solution is prepared at the day of use. Test solutions are prepared in general at concentrations of 2500 ppm, 1415 ppm, 828 ppm, 800 ppm and 300 ppm (wt/vol).
For evaluating control of green peach aphid (Myzus persicae) through systemic means the test unit consisted of 96-well-microtiter plates containing liquid artificial diet under an artificial membrane. The compounds were formulated using a solution containing 75% v/v water and 25% v/v DMSO. Different concentrations of formulated compounds were pipetted into the aphid diet, using a custom built pipetter, at two replications. After application, 5-8 adult aphids were placed on the artificial membrane inside the microtiter plate wells. The aphids were then allowed to suck on the treated aphid diet and incubated at about 23±1° C. and about 50±5% relative humidity for 3 days. Aphid mortality and fecundity was then visually assessed.

[2] = tested on: vetch aphid (Megoura viciae); test: Vetch aphid (Megoura viciae) broad bean leaf disk test, contact or systemic; details: foliar, 120 h, read-out: mortality in comparison with untreated controls
Protocol: as §1
For evaluating control of vetch aphid (Megoura viciae) through contact or systemic means the test unit consisted of 24-well-microtiter plates containing broad bean leaf disks.
The compounds were formulated using a solution containing 75% v/v water and 25% v/v DMSO. Different concentrations of formulated compounds were sprayed onto the leaf disks at 2.5 μl, using a custom built micro atomizer, at two replications. After application, the leaf disks were air-dried and 5-8 adult aphids placed on the leaf disks inside the microtiter plate wells. The aphids were then allowed to suck on the treated leaf disks and incubated at about 23±1° C. and about 50±5% relative humidity for 5 days. Aphid mortality and fecundity was then visually assessed.

[3] = tested on: yellow fever mosquito (Aedes aegypti); test: whole plant or invertebrate; details: 48 h, larval mortality, 2 days, read-out: mortality in comparison with untreated controls
Protocol: as §1
For evaluating control of yellow fever mosquito (Aedes aegypti) the test unit consisted of 96-well-microtiter plates containing 200 μl of tap water per well and 5-15 freshly hatched A. aegypti 5 larvae. The active compounds were formulated using a solution containing 75% (v/v) water and 25% (v/v) DMSO. Different concentrations of formulated compounds or mixtures were sprayed onto the insect diet at 2.5 μl, using a custom-built micro atomizer, at two replications. After application, microtiter plates were incubated at 28±1° C., 80±5% R^H for 2 days. Larval 10 mortality was then visually assessed.

[4] = tested on: boll weevil (Anthonomus grandis); test: Boll weevil (Anthonomus grandis) microtiter insect-diet test; details: 120 h, read-out: mortality in comparison with untreated controls
Protocol: as §1
(§2) For evaluating control of boll weevil (Anthonomus grandis) the test unit consisted of 96-well-microtiter plates containing an insect diet and 5-10 A. grandis eggs. The compounds were formulated using a solution containing 75% v/v water and 25% v/v DMSO. Different concentrations of formulated compounds were sprayed onto the insect diet at 5 μl, using a custom built micro atomizer, at two replications. After application, microtiter plates were incubated at about 25±1° C. and about 75±5% relative humidity for 5 days. Egg and larval mortality was then visually assessed.

[5] = tested on: tobacco budworm (Heliothis virescens); test: Tobacco budworm (Heliothis virescens) microtiter insect-diet test; details: 120 h, read-out: mortality in comparison with untreated controls
Protocol: as §1
as §2, with “of tobacco budworm (Heliothis virescens)” for “of boll weevil (Anthonomus grandis)”, “and 15-25 H. virescens” for “and 5-10 A. grandis”, “at 10” for “at 5”, “about 28±1°” for “about 25±1°”, “about 80±5%” for “about 75±5%”

[6] = tested on: Greenhouse Whitefly (Trialeurodes vaporariorum); test: Greenhouse whitefly (Trialeurodes vaporariorum) egg plant leaf disk test; details: foliar, 144 h, read-out: mortality in comparison with untreated controls
Protocol: as §1
For evaluating control of Greenhouse Whitefly (Trialeurodes vaporariorum) the test unit consisted of 96-well-microtiter plates containing a leaf disk of egg plant leaf disk with white fly eggs. The compounds or mixtures were formulated using a solution containing 75% water and 25% DMSO. Different concentrations of formulated were sprayed onto the insect diet at 2.5 μl, using a custom-built micro atomizer, at two replications. After application, microtiter plates were incubated at 23±1° C., 65±5% R^H for 6 days. Mortality of hatched crawlers was then visually assessed.

Row | Structure (SMILES) | mortality at 2500 ppm [1] [%] | mortality at 2500 ppm [2] [%] | mortality at 2500 ppm [3] [%] | mortality at 800 ppm [4] [%] | mortality at 2500 ppm [5] [%] | mortality at 2500 ppm [6] [%] | mortality at 828 ppm [4] [%] | mortality at 800 ppm [1] [%] | mortality at 800 ppm ([3]; 800 ppm) [%] | mortality at 800 ppm [5] [%]
1 | CCS(=O)(=O)c1c(-c2cn3c(=O)n(C)c(C(F)(F)F)cc3n2)nc2ccc(C(F)(F)F)cn12 [I.1, 2-[3-ethylsulfonyl-6-(trifluoromethyl)imidazo[1,2-a]pyridin-2-yl]-6-methyl-7-(trifluoromethyl)imidazo[1,2-c]pyrimidin-5-one] | > 75 | > 75 | ≥ 75 | > 75 | > 75 |  |  |  |  | 
2 | CCS(=O)(=O)c1c(-c2cn3c(=O)n(C4CC4)c(C(F)(F)F)cc3n2)nc2ccccn12 [I.2, 6-cyclopropyl-2-[3-(ethanesulfonyl)imidazo[1,2-a]pyridin-2-yl]-7-(trifluoromethyl)imidazo[1,2-c]pyrimidin-5-one] | > 75 |  | ≥ 75 |  |  | ≥ 75 | > 75 |  |  | 
3 | CCS(=O)(=O)c1c(-c2cn3c(=O)n(C4CC4)c(C(F)(F)F)cc3n2)nn2ccccc12 [I.11, 6-cyclopropyl-2-(3-ethylsulfonylpyrazolo[1,5-a]pyridin-2-yl)-7-(trifluoromethyl)imidazo[1,2-c]pyrimidin-5-one] |  |  |  | > 75 |  |  |  | > 75 | ≥ 75 | > 75
4 | CCS(=O)(=O)c1c(-c2cn3c(=O)n(C)c(C(F)(F)F)cc3n2)nc2n1CCCC2 [I.13, 2-(3-ethylsulfonyl-5,6,7,8-tetrahydroimidazo[1,2-a]pyridin-2-yl)-6-methyl-7-(trifluoromethyl)imidazo[1,2-c]pyrimidin-5-one] |  |  |  | > 75 |  |  |  |  |  | 

Reference: patent publication US20220411428A1, “Pyrimidone Derivatives Containing Two Fused Bicyclic Rings” (priority 2019, published 2022)
